Results from patent US20260256923A1, “NEW RECRUITMENT ELEMENT OF UBIQUITIN LIGASE AND USE THEREOF” (SHENZHEN LINGGENE BIOTECH CO., LTD., priority 2023, published 2026).

Columns and labels:
[1] = biological target: T1, interaction between NCL and MDM2 (Homo sapiens, UniProt P19338); assay: Co-immunoprecipitation of NCL and MDM2 from HeLa cell lysate, western blot; assay type: binding; settings: 0-20 μM, 4° C. 6 h, IP with antibody against NCL
T1 construct: HeLa cervical cancer cells were lysed with an IP lysis solution; endogenous in cells; host or cells: HeLa cell lysate
Procedure: Co-immunoprecipitation (Co-IP) is a classical method for the study of protein interactions based on the specific interaction between an antibody and an antigen. It is an effective method to determine the physiological interaction between two proteins in intact cells.
HeLa cervical cancer cells were lysed with an IP lysis solution (purchased from Thermo Scientific, Cat. No.: 87788) and then incubated with AS 1411 or iSN04 at different concentrations (0 μM, 1 μM, 5 μM, 10 μM, and 20 μM) at 4° C. for 6 h. Subsequently, […] of an antibody against NCL was added, and the mixture was further incubated at 4° C. overnight. Protein A/G magnetic beads (purchased from Thermo Scientific, Cat. No.: 88802) were added, and the mixture was incubated with rotation at room temperature for 1.5 h. The bound NCL and its interacting proteins on the magnetic beads were washed with an IP lysis buffer (purchased from Thermo Scientific, Cat. No.: 87788), and an SDS-PAGE protein loading buffer (purchased from Beyotime, Cat. No.: P0015) was added. The mixture was heated to 100° C. and held for 10 min. The magnetic beads were adsorbed on a magnetic rack, and the supernatant was transferred into a new tube. Subsequently, western blot assay was performed to detect whether NCL bound to MDM2 and whether the binding was affected by AS 1411 or iSN04. […]

[2] = biological target: T2, MDM2 (Homo sapiens, UniProt P19338+Q00987); assay: MDM2 protein degradation in A549 non-small cell lung cancer cells, western blot; assay type: cell-based
T2 construct: endogenous in cells; host or cells: A549
Procedure: (1) A549 non-small cell lung cancer cells were incubated with 200 nM AS1411-VH032, and corresponding cell samples were collected at time gradients of 0 h, 3 h, 6 h, 9 h, 12 h, and 24 h for protein extraction and subsequent western blot assay to detect protein degradation.
(2) A549 non-small cell lung cancer cells were incubated with AS1411-VH032 at concentrations of 0 nM, 50 nM, 100 nM, 150 nM, 200 nM, and 250 nM. After 3 h, cell samples were collected for protein extraction and subsequent western blot assay to detect protein degradation.
(3) A549 non-small cell lung cancer cells were incubated with 200 nM AS1411, VH032, AS1411-VH032, or AS1411+VH032. After 3 h, cell samples were collected for protein extraction and subsequent western blot assay to detect protein degradation.
(4) A549 non-small cell lung cancer cells were incubated with 200 nM AS1411-VH032 for 3 h, and proteasome inhibitor MG132 was added. Cell samples were collected for protein extraction and subsequent western blot assay.
(5) A549 non-small cell lung cancer cells were transfected with si-NC or si-NCL and subsequently incubated with 200 nM AS1411-VH032 for 3 h. Cell samples were collected for protein extraction and subsequent western blot assay.
(1) A549 non-small cell lung cancer cells were incubated with 1000 nM AS1411-AS1411, and corresponding cell samples were collected at time gradients of 0 h, 3 h, 6 h, 9 h, 12 h, and 24 h for protein extraction and subsequent western blot assay to detect protein degradation.
(2) A549 non-small cell lung cancer cells were incubated with AS1411-AS1411 at concentrations of 0 nM, 50 nM, 100 nM, 250 nM, 500 nM, and 1000 nM. After 12 h, cell samples were collected for protein extraction and subsequent western blot assay to detect protein degradation.
(3) A549 non-small cell lung cancer cells were incubated with 1000 nM AS1411, AS1411-AS1411, or AS1411+AS1411. After 12 h, cell samples were collected for protein extraction and subsequent western blot assay to detect protein degradation. […]

[3] = test system: MCF 10A human normal mammary epithelial cells; assay: Toxicity to normal cells, cell apoptosis proportion by flow cytometer; assay type: cell-based; settings: 0-5000 nM, 4 days, medium renewed every day
Procedure: The toxicity of AS1411 to normal cells was compared with that of the small molecule ligand nutlin-3a of MDM2 to normal cells. AS1411 or nutlin-3a at different concentrations (0 nM, 500 nM, 1000 nM, and 5000 nM) was incubated with MCF 10A human normal mammary epithelial cells for 4 days, and the medium containing the respective concentrations of AS1411 or nutlin-3a was renewed every day. The cell apoptosis proportion was detected using a flow cytometer.

T2 sequence (Q00987 whole entry): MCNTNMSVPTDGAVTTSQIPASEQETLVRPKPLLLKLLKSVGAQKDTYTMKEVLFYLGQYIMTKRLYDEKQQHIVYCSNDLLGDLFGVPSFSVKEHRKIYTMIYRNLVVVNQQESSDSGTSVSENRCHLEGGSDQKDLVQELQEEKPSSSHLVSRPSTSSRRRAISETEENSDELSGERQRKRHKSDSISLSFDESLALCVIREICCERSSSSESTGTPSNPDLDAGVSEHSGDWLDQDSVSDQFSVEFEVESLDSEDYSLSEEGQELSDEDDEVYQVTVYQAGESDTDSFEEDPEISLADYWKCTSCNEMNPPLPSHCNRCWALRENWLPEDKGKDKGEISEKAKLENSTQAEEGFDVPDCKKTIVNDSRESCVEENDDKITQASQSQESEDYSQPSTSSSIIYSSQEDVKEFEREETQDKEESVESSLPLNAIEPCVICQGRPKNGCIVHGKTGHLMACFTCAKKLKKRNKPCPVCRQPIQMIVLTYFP
T2 sequence (P19338 2-710 limits assumed): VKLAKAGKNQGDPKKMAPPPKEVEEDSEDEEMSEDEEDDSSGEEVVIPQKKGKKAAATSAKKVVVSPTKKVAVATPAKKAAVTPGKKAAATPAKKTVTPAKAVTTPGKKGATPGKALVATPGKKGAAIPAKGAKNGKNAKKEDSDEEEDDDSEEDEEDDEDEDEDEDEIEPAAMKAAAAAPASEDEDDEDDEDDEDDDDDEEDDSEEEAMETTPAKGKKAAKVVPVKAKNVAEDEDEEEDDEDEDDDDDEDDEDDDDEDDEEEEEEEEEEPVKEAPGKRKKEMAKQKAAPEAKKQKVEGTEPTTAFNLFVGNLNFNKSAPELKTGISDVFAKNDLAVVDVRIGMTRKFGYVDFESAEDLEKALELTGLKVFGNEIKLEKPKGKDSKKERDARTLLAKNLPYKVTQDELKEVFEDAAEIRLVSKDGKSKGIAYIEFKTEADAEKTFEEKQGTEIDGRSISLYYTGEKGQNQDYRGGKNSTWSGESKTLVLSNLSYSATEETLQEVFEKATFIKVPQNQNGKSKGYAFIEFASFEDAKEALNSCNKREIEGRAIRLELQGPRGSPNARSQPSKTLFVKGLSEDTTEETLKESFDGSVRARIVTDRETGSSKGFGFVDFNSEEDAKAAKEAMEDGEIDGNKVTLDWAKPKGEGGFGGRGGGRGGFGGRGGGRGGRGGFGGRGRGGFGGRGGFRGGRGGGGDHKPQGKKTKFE
T1 sequence (P19338 2-710 limits assumed): as above

## AS1411: DNA aptamer, GRO binding NCL, SEQ ID NO: 1: 5′-GGTGGTGGTGGTTGTGGTGGTGGTGG-3′
[1]
  effect on the interaction between NCL and MDM2: does not affect the interaction between NCL and MDM2
[2]; A549, 200 nM, 3 h
  protein level of MDM2: neither AS1411, VH032, nor AS1411+VH032 can reduce the protein level of MDM2
[2]; A549, 1000 nM, 12 h
  protein level of MDM2: neither AS1411 nor AS1411+AS1411 can reduce the protein level of MDM2
[3]
  toxicity to normal cells (cell apoptosis proportion): has no significant toxicity
